The Kinase Knowledgebase extract (Sharma et al. 2016)

biological target: MAPK14 (UniProt Q16539)
Sequence (Q16539 whole entry, looked up): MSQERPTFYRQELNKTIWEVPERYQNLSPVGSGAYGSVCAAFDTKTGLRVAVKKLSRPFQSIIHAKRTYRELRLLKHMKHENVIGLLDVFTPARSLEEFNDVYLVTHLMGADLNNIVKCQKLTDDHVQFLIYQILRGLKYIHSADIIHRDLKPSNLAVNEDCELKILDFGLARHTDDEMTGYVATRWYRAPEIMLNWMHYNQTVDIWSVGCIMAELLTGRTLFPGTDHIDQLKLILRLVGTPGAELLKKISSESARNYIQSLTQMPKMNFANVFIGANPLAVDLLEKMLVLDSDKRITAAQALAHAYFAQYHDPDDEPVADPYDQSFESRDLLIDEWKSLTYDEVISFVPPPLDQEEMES

IC50, < 50 µM:
CC[C@@H](CO)n1cnc(-c2ccc(F)cc2)c1-c1ccnc(Oc2ccc(C)cc2)n1
C[C@@H](CO)n1cnc(-c2ccc(F)cc2)c1-c1ccnc(Oc2ccc(F)cc2)n1
CC[C@H](CO)n1cnc(-c2ccc(F)cc2)c1-c1ccnc(Oc2ccc(Cl)cc2)n1
CC[C@@H](CO)n1cnc(-c2ccc(F)cc2)c1-c1ccnc(Oc2ccc(Cl)cc2)n1
OCC(CO)n1cnc(-c2ccc(F)cc2)c1-c1ccnc(Oc2ccc(F)cc2)n1
OC[C@@H](c1ccccc1)n1cnc(-c2ccc(F)cc2)c1-c1ccnc(Oc2ccccc2)n1
Cc1ccc(Oc2nccc(-c3c(-c4ccc(F)cc4)ncn3C(CO)CO)n2)cc1
C[C@@H](CO)n1cnc(-c2ccc(F)cc2)c1-c1ccnc(Oc2ccc(Cl)cc2)n1
OCC(CO)n1cnc(-c2ccc(F)cc2)c1-c1ccnc(Oc2ccccc2)n1
C[C@H](CO)n1cnc(-c2ccc(F)cc2)c1-c1ccnc(Oc2ccc(F)cc2)n1
CC[C@H](CO)n1cnc(-c2ccc(F)cc2)c1-c1ccnc(Oc2ccc(C)cc2)n1
Cc1ccc(Oc2nccc(-c3c(-c4ccc(F)cc4)ncn3[C@@H](C)CO)n2)cc1
CC[C@H](CO)n1cnc(-c2ccc(F)cc2)c1-c1ccnc(Oc2ccccc2)n1
CC[C@@H](CO)n1cnc(-c2ccc(F)cc2)c1-c1ccnc(Oc2ccccc2)n1
C[C@H](CCN1CCOCC1)n1cnc(-c2ccc(F)cc2)c1-c1ccnc(Oc2ccccc2)n1
OC[C@H](c1ccccc1)n1cnc(-c2ccc(F)cc2)c1-c1ccnc(Oc2ccccc2)n1
